From patent US10844013B2, “Phenyl amino piperidine mTORC inhibitors and uses thereof” (Navitor Pharmaceuticals, Inc., priority 2016, dated 2020)
Read-outs that look alike come from different tables or passages of the source.

How the values were obtained:
[1] = tested on: pS6K1 (p-p70 S6 Kinase (Thr389)) in MCF-7 cells; experiment: AlphaLISA Ultra pS6K1 assay; assay type: cell-based; conditions: 2 hours compound incubation
Summary of the method: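 MCF-7 cells seeded 20–24 h, medium refreshed 2 h, then treated 2 h with compound (0.5% DMSO final). Lysates probed for Thr389-phosphorylated p70 S6K by AlphaLISA Ultra, 2 h acceptor then 2 h donor bead incubation, read on a multimode reader.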

[2] = tested on: pAKT (p-Akt 1/2/3 (Ser473)) in MCF-7 cells; experiment: AlphaLISA Ultra pAKT assay; assay type: cell-based
Summary of the method: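 AlphaLISA read-out (2 h acceptor-bead, then 2 h donor-bead incubation) on thawed lysates of MCF-7 cells exposed to compounds for 2 h in 0.5% DMSO. Cells had been plated 20-24 h and given fresh medium 2 h before dosing.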

[3] = Homo sapiens, MCF7, 2 hours compound incubation

SMILES: Cc1cc(C)c(C(=O)N2CCN(c3ncccc3S(N)(=O)=O)C[C@@H]2C)c(C)c1NC1CCN(c2ccc(F)cc2C#N)CC1 [I-193, (S)-2-(4-(3-(1-(2-cyano-4-fluorophenyl)piperidin-4-ylamino)-2,4,6-trimethylbenzoyl)-3-methylpiperazin-1-yl)pyridine-3-sulfonamide]
- IC50 ([1]; Homo sapiens, MCF7, 2 h): 1000 to 3000 nM
- IC50 [2, 3]: > 10 µM

SMILES: CNC(=O)c1cccnc1N1CCN(C(=O)c2cc(NC3CCN(c4ccccc4C#N)CC3)c(C)cc2C)C[C@H]1C [I-123, (R)-2-(4-(5-(1-(2-Cyanophenyl)piperidin-4-ylamino)-2,4-dimethylbenzoyl)-2-methylpiperazin-1-yl)-N-methylnicotinamide]
- IC50 ([1]; Homo sapiens, MCF7, 2 h): 1000 to 3000 nM
- IC50 [2, 3]: > 10 µM

SMILES: Cc1cc(C)c(C(=O)N2CCN(C(C)C)[C@H](CO)C2)cc1NC1CCN(c2ccccc2C#N)CC1 [I-95, (S)-2-(4-(5-(3-(Hydroxymethyl)-4-isopropylpiperazine-1-carbonyl)-2,4-dimethylphenylamino)piperidin-1-yl)benzonitrile]
- IC50 ([1]; Homo sapiens, MCF7, 2 h): > 10000 nM
- IC50 [2, 3]: > 10 µM

SMILES: CNC(=O)C1CN(C(=O)c2cc(N(C)C3CCN(c4ccccc4C#N)CC3)c(C)cc2C)CCN1c1ccccc1 (centres unmarked) [I-58]
- IC50 ([1]; Homo sapiens, MCF7, 2 h): 10 to 1000 nM
- IC50 [2, 3]: > 10 µM

SMILES: Cc1ccc(NC2CCN(c3ccccc3C#N)CC2)cc1C(=O)N1CCN(c2ccccc2)C(CO)C1 (single isomer, unassigned) [I-83, 2-[4-({3-[(3S or R)-3-(hydroxymethyl)-4-phenylpiperazine-1-carbonyl]-4-methylphenyl}amino)piperidin-1-yl]benzonitrile]
- IC50 ([1]; read-out: pS6K1 in MCF7: IC50): 10 to 1000 nM
- IC50 ([2]; 2 hours compound incubation, read-out: pAKT in MCF7: IC50): > 10 µM

SMILES: Cc1cc(C)c(C(=O)N2CCN(c3ccccc3F)C(CO)C2)cc1NC1CCN(c2ccccc2C#N)CC1 (centres unmarked) [I-74, 2-[4-({5-[4-(2-Fluorophenyl)-3-(hydroxymethyl)piperazine-1-carbonyl]-2,4-dimethylphenyl}amino)piperidin-1-yl]benzonitrile]
- IC50 ([1]; Homo sapiens, MCF7, 2 h): 10 to 1000 nM
- IC50 [2, 3]: > 10 µM

SMILES: CNC(=O)c1cc(F)ccc1N1CCN(C(=O)c2cc(NC3CCN(c4ccccc4C#N)CC3)c(C)cc2C)CC1 [I-65]
- IC50 ([1]; Homo sapiens, MCF7, 2 h): 10 to 1000 nM
- IC50 [2, 3]: > 10 µM

SMILES: Cc1ccc(C(=O)N2CCN(c3ccccc3S(N)(=O)=O)CC2)c(C)c1NC1CCN(c2ccccc2C#N)CC1 [I-124, 2-[4-[3-[[1-(2-cyanophenyl)-4-piperidyl]amino]-2,4-dimethyl-benzoyl]piperazin-1-yl]benzenesulfonamide]
- IC50 ([1]; Homo sapiens, MCF7, 2 h): 10 to 1000 nM
- IC50 [2, 3]: > 10 µM

SMILES: Cc1cc(C)c(C(=O)N2CCN(c3ccccn3)[C@H](CO)C2)c(C)c1NC1CCN(c2ccc(F)cn2)CC1 [I-147, [(2S)-4-(3-{[1-(5-Fluoropyridin-2-yl)piperidin-4-yl]amino}-2,4,6-trimethylbenzoyl)-1-(pyridin-2-yl)piperazin-2-yl]methanol]
- IC50 ([1]; Homo sapiens, MCF7, 2 h): 10 to 1000 nM
- IC50 [2, 3]: > 10 µM

SMILES: Cc1cc(C)c(C(=O)N2CCN(c3ccccn3)[C@H](CO)C2)cc1NC1CCN(c2ccccc2OC(F)F)CC1 [I-184, (S)-(5-(1-(2-(difluoromethoxy)phenyl)piperidin-4-ylamino)-2,4-dimethylphenyl)(3-(hydroxymethyl)-4-(pyridin-2-yl)piperazin-1-yl)methanone]
- IC50 ([1]; Homo sapiens, MCF7, 2 h): 10 to 1000 nM
- IC50 [2, 3]: > 10 µM

SMILES: Cc1nc(C)c(C(=O)N2CCN(c3ccccc3)[C@H](CO)C2)c(C)c1NC1CCN(c2ccccn2)CC1 [I-155, [(2S)-1-phenyl-4-(2,4,6-trimethyl-5-{[1-(pyridin-2-yl)piperidin-4-yl]amino}pyridine-3-carbonyl)piperazin-2-yl]MeOH]
- IC50 ([1]; Homo sapiens, MCF7, 2 h): 1000 to 3000 nM
- IC50 [2, 3]: > 10 µM

SMILES: Cc1cc(C)c(C(=O)N2CCN(c3ccccc3)[C@H](C(C)(C)O)C2)cc1NC1CCN(c2ccccc2C#N)CC1 [I-20]
- IC50 ([1]; Homo sapiens, MCF7, 2 h): 1000 to 3000 nM
- IC50 [2, 3]: > 10 µM

SMILES: Cc1cc(C)c(C(=O)N2CCN(c3ccccc3S(N)(=O)=O)CC2)cc1NC1CCN(c2ccccc2C#N)CC1 [I-67]
- IC50 ([1]; Homo sapiens, MCF7, 2 h): 10 to 1000 nM
- IC50 [2, 3]: > 10 µM

SMILES: Cc1cc(C)c(C(=O)N2CCN(c3ccccc3)[C@@H](CO)C2)cc1NC1CCN(c2ccccc2)CC1 [I-54]
- IC50 ([1]; Homo sapiens, MCF7, 2 h): 1000 to 3000 nM
- IC50 [2, 3]: > 10 µM

SMILES: Cc1cc(C)c(C(=O)N2CCN(c3ccc(F)cc3)C(CO)C2)cc1NC1CCN(c2ccccc2C#N)CC1 (centres unmarked) [I-76, 2-[4-({5-[4-(4-fluorophenyl)-3-(hydroxymethyl)piperazine-1-carbonyl]-2,4-dimethylphenyl}amino)piperidin-1-yl]benzonitrile]
- IC50 ([1]; Homo sapiens, MCF7, 2 h): 10 to 1000 nM
- IC50 [2, 3]: > 10 µM

SMILES: Cc1cc(C)c(C(=O)N2CCN(c3ccc(F)cn3)CC2)cc1NC1CCN(c2ccccc2Cl)CC1 [I-36, (5-(1-(2-Chlorophenyl)piperidin-4-ylamino)-2,4-dimethylphenyl)(4-(5-fluoropyridin-2-yl)piperazin-1-yl)methanone]
- IC50 ([1]; Homo sapiens, MCF7, 2 h): 5000 to 10000 nM
- IC50 [2, 3]: > 10 µM

SMILES: Cc1cc(C)c(C(=O)N2CCN(c3ccccn3)[C@@H](CO)C2)cc1NC1CCN(c2ccccc2C#N)CC1 [I-30]
- IC50 ([1]; Homo sapiens, MCF7, 2 h): 10 to 1000 nM
- IC50 [2, 3]: > 10 µM

SMILES: Cc1cc(C#N)c(NC2CCN(c3ccccc3C#N)CC2)cc1C(=O)N1CCN(c2ccccc2S(N)(=O)=O)CC1 [I-86, 2-(4-(4-Cyano-5-(1-(2-cyanophenyl)piperidin-4-ylamino)-2-methylbenzoyl)piperazin-1-yl)benzenesulfonamide]
- IC50 ([1]; Homo sapiens, MCF7, 2 h): > 10000 nM
- IC50 [2, 3]: > 10 µM

SMILES: Cc1cc(C)c(C(=O)N2CCN(c3ncccc3C(N)=O)CC2)cc1NC1CCN(c2ccccc2C#N)CC1 [I-28]
- IC50 ([1]; Homo sapiens, MCF7, 2 h): 1000 to 3000 nM
- IC50 [2, 3]: > 10 µM

SMILES: Cc1cc(C)c(C(=O)N2CCN(c3ccccc3S(N)(=O)=O)CC2)cc1NC1C2CN(c3ccccc3C#N)CC21 (centres unmarked) [I-132, 2-(4-(5-(3-(2-Cyanophenyl)-3-azabicyclo[3.1.0]hexan-6-ylamino)-2,4-dimethylbenzoyl)piperazin-1-yl)benzenesulfonamide]
- IC50 ([1]; Homo sapiens, MCF7, 2 h): 1000 to 3000 nM
- IC50 [2, 3]: > 10 µM

SMILES: Cc1cc(C)c(C(=O)N2CCN(c3ccccn3)[C@H](CO)C2)c(C)c1NC1CCN(c2ccccn2)CC1 [I-156, [(2S)-1-(pyridin-2-yl)-4-(2,4,6-trimethyl-3-{[1-(pyridin-2-yl)piperidin-4-yl]amino}benzoyl)piperazin-2-yl]MeOH]
- IC50 ([1]; Homo sapiens, MCF7, 2 h): 10 to 1000 nM
- IC50 [2, 3]: > 10 µM

SMILES: Cc1cc(C)c(C(=O)N2CCN(c3ccccc3S(N)(=O)=O)CC2)cc1NC1CCN(c2ccccc2C#N)C1 (centres unmarked) [I-131, 2-(4-(5-(1-(2-cyanophenyl)pyrrolidin-3-ylamino)-2,4-dimethylbenzoyl)piperazin-1-yl)benzenesulfonamide]
- IC50 ([1]; Homo sapiens, MCF7, 2 h): > 10000 nM
- IC50 [2, 3]: > 10 µM

SMILES: CNC(=O)c1ccccc1N1CCN(C(=O)c2cc(NC3CCN(c4ccccc4C#N)CC3)c(C)cc2C)C[C@@H]1CO (single isomer, unassigned) [I-133]
- IC50 ([1]; Homo sapiens, MCF7, 2 h): 1000 to 3000 nM
- IC50 [2, 3]: > 10 µM

SMILES: CNC(=O)c1ccccc1N1CCN(C(=O)c2cc(NC3CCN(c4ccccc4C#N)CC3)c(C)cc2C)C[C@H]1CO (single isomer, unassigned) [I-134]
- IC50 ([1]; Homo sapiens, MCF7, 2 h): 1000 to 3000 nM
- IC50 [2, 3]: > 10 µM

SMILES: Cc1cc(C)c(C(=O)N2CCN(c3cccnn3)[C@H](CO)C2)c(C)c1NC1CCN(c2ccccn2)CC1 [I-157, [(2S)-1-(pyridazin-3-yl)-4-(2,4,6-trimethyl-3-{[1-(pyridin-2-yl)piperidin-4-yl]amino}benzoyl)piperazin-2-yl]MeOH]
- IC50 ([1]; Homo sapiens, MCF7, 2 h): 10 to 1000 nM
- IC50 [2, 3]: > 10 µM

SMILES: Cc1cc(C)c(C(=O)N2CC(=O)N(c3ccc(F)c(F)c3)[C@H](CO)C2)c(C)c1NC1CCN(c2ccccc2C#N)CC1 [I-136, 2-[4-({3-[(3S)-4-(3,4-difluoro-phenyl)-3-(hydroxy-methyl)-5-oxopiperazine-1-carbonyl]-2,4,6-trimethyl-phenyl}amino)piperidin-1-yl]benzonitrile]
- IC50 ([1]; Homo sapiens, MCF7, 2 h): 10 to 1000 nM
- IC50 [2, 3]: > 10 µM

SMILES: Cc1cc(C)c(C(=O)N2CCN(c3ccccc3)C(C(N)=O)C2)c(C)c1NC1CCN(c2ccc(F)cc2C#N)CC1 (centres unmarked) [I-142, 4-(3-{[1-(2-cyano-4-fluorophenyl)piperidin-4-yl]amino}-2,4,6-trimethyl-benzoyl)-1-phenyl-piperazine-2-carboxamide]
- IC50 ([1]; Homo sapiens, MCF7, 2 h): 10 to 1000 nM
- IC50 [2, 3]: > 10 µM

SMILES: Cc1cc(C)c(C(=O)N2CCN(c3ncccc3[S@](C)(=N)=O)CC2)cc1NC1CCN(c2ccccc2C#N)CC1 [I-94, (R)-2-(4-(2,4-Dimethyl-5-(4-(3-(S-methylsulfonimidoyl)pyridin-2-yl)piperazine-1-carbonyl)phenylamino)piperidin-1-yl)benzonitrile]
- IC50 ([1]; Homo sapiens, MCF7, 2 h): 1000 to 3000 nM
- IC50 [2, 3]: > 10 µM

SMILES: Cc1cc(C)c(C(=O)N2CCN(c3ccccc3C#N)CC2)cc1NC1CCN(c2cccc(Cl)c2)CC1 [I-17, 2-(4-(5-(1-(3-Chlorophenyl)piperidin-4-ylamino)-2,4-dimethylbenzoyl)piperazin-1-yl)benzonitrile]
- IC50 ([1]; Homo sapiens, MCF7, 2 h): 1000 to 3000 nM
- IC50 [2, 3]: > 10 µM

SMILES: Cc1cccc(N2CCN(C(=O)c3cc(NC4CCN(c5ccccc5Cl)CC4)c(C)cc3C)CC2)n1 [I-35, (5-(1-(2-chlorophenyl)piperidin-4-ylamino)-2,4-dimethylphenyl) (4-(6-methylpyridin-2-yl)piperazin-1-yl) methanone]
- IC50 ([1]; Homo sapiens, MCF7, 2 h): 3000 to 5000 nM
- IC50 [2, 3]: > 10 µM

SMILES: Cc1cc(C)c(C(=O)N2CCN(c3ncccc3S(N)(=O)=O)C[C@@H]2C)c(C)c1NC1CCN(c2ccccc2C#N)CC1 [I-188, (S)-2-(4-(3-(1-(2-cyanophenyl)piperidin-4-ylamino)-2,4,6-trimethylbenzoyl)-3-methylpiperazin-1-yl)pyridine-3-sulfonamide]
- IC50 ([1]; Homo sapiens, MCF7, 2 h): 1000 to 3000 nM
- IC50 [2, 3]: > 10 µM
